# Assay results reported in patent publication US11000033B2, “Ketone or oxime compound, and herbicide” (NISSAN CHEMICAL CORPORATION, priority 2014, dated 2021).
# Key:
# Type in all cases: in vivo
# [1] = tested on: directly sowed rice plant; test: Test Example 3: effect on crop by foliage application, Wagner pot (symbol b); conditions: application herbicide amount 320 g/ha, Table 24
# Outline: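 Greenhouse culture at 25–30 °C of seeded rice, Cyperus difformis, Leptochloa chinensis and Echinochloa crus-galli var. crus-galli, in alluvial soil held under 0.1–0.5 cm of water in a Wagner pot.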
# [2] = tested on: Digitaria ciliaris; test: Test Example 4: herbicidal effect by soil treatment (symbol F); conditions: application herbicide amount 320 g/ha
# Outline: (§1)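 Seeds were sown in sterilized diluvial soil, covered with about 1.5 cm of soil, and the soil surface was sprayed with a water-diluted emulsion of the compound at a predetermined rate. Plants grew in a greenhouse at 25° C. to 30° C.; effects were scored visually 3 weeks after application.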
# [3] = tested on: Echinochloa crus-galli var. crus-galli; test: Test Example 4: herbicidal effect by soil treatment (symbol H); conditions: application herbicide amount 320 g/ha
# Outline: as §1
# [4] = tested on: Alopecurus myosuroides; test: Test Example 4: herbicidal effect by soil treatment (symbol J); conditions: application herbicide amount 320 g/ha
# Outline: as §1
# [5] = tested on: Lolium multiflorum Lam.; test: Test Example 4: herbicidal effect by soil treatment (symbol K); conditions: application herbicide amount 320 g/ha
# Outline: as §1
# [6] = tested on: Stellaria media; test: Test Example 4: herbicidal effect by soil treatment (symbol P); conditions: application herbicide amount 320 g/ha
# Outline: as §1
# [7] = tested on: Veronica persica; test: Test Example 4: herbicidal effect by soil treatment (symbol R); conditions: application herbicide amount 320 g/ha
# Outline: as §1
# [8] = tested on: corn; test: Test Example 4: effect on crop by soil treatment (symbol c); conditions: application herbicide amount 320 g/ha
# Outline: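 Steps: fill box with sterilized diluvial soil; sow seed spot-like; cover with ~1.5 cm soil; grow in greenhouse (25° C. to 30° C.).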
# [9] = tested on: soybean; test: Test Example 4: effect on crop by soil treatment (symbol d); conditions: application herbicide amount 320 g/ha
# Outline: (§2)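 Crop seeds, among them rice, wheat, beet and rapeseed, were sown in sterilized diluvial soil and covered with about 1.5 cm of soil. Boxes were kept in a greenhouse at 25° C. to 30° C. for plant growth.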
# [10] = tested on: rice; test: Test Example 4: effect on crop by soil treatment (symbol b); conditions: application herbicide amount 320 g/ha
# Outline: as §2
# [11] = tested on: beet; test: Test Example 4: effect on crop by soil treatment (symbol f); conditions: application herbicide amount 320 g/ha
# Outline: as §2
# [12] = tested on: rapeseed; test: Test Example 4: effect on crop by soil treatment (symbol g); conditions: application herbicide amount 320 g/ha
# Outline: as §2
# [13] = tested on: Digitaria ciliaris; test: Test Example 5: herbicidal effect by foliage application, plastic box (symbol F); conditions: 320 g/ha, 3 weeks after application
# Outline: (§3)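 After sowing into sterilized diluvial soil and growing two weeks under glass at 25° C. to 30° C., seedlings receive a uniform foliar spray of diluted emulsion. Damage is judged visually three weeks on.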
# [14] = tested on: Setaria viridis; test: Test Example 5: herbicidal effect by foliage application, plastic box (symbol G); conditions: 320 g/ha, 3 weeks after application
# Outline: as §3
# [15] = tested on: Avena fatua; test: Test Example 5: herbicidal effect by foliage application, plastic box (symbol I); conditions: 320 g/ha, 3 weeks after application
# Outline: as §3
# [16] = tested on: Apera spica-venti; test: Test Example 5: herbicidal effect by foliage application, plastic box (symbol L); conditions: 320 g/ha, 3 weeks after application
# Outline: as §3
# [17] = tested on: Abutilon theophrasti; test: Test Example 5: herbicidal effect by foliage application, plastic box (symbol M); conditions: 320 g/ha, 3 weeks after application
# Outline: as §3
# [18] = tested on: Chenopodium album; test: Test Example 5: herbicidal effect by foliage application, plastic box (symbol O); conditions: 320 g/ha, 3 weeks after application
# Outline: as §3
# [19] = tested on: Stellaria media; test: Test Example 5: herbicidal effect by foliage application, plastic box (symbol P); conditions: 320 g/ha, 3 weeks after application
# Outline: as §3
# [20] = tested on: Galium spurium; test: Test Example 5: herbicidal effect by foliage application, plastic box (symbol Q); conditions: 320 g/ha, 3 weeks after application
# Outline: as §3
# [21] = tested on: Veronica persica; test: Test Example 5: herbicidal effect by foliage application, plastic box (symbol R); conditions: 320 g/ha, 3 weeks after application
# Outline: as §3
# [22] = tested on: rice plant; test: Test Example 5: effect on crop by foliage application, plastic box (symbol b); conditions: 320 g/ha, 3 weeks after application
# Outline: (§4)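 Greenhouse culture at 25° C. to 30° C. followed spot-like sowing into sterilized diluvial soil, with seed covered by roughly 1.5 cm of soil.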
# [23] = tested on: wheat; test: Test Example 5: effect on crop by foliage application, plastic box (symbol e); conditions: 320 g/ha, 3 weeks after application
# Outline: as §4
# [24] = tested on: beet; test: Test Example 5: effect on crop by foliage application, plastic box (symbol f); conditions: 320 g/ha, 3 weeks after application
# Outline: as §4
SMILES,b (directly sowed rice plant) effect on crop grade [1],"Herbicidal effect grade, F: Digitaria ciliaris [2]","Herbicidal effect grade, H: Echinochloa crus-galli var. crus-galli [3]","Herbicidal effect grade, J: Alopecurus myosuroides [4]","Herbicidal effect grade, K: Lolium multiflorum Lam. [5]","Herbicidal effect grade, P: Stellaria media [6]","Herbicidal effect grade, R: Veronica persica [7]","Effect on crop grade, c: corn [8]","Effect on crop grade, d: soybean [9]","Effect on crop grade, b: directly sowed rice plant [10]","Effect on crop grade, f: beet [11]","Effect on crop grade, g: rapeseed [12]","F: Digitaria ciliaris, herbicidal effect grade [13]","G: Setaria viridis, herbicidal effect grade [14]","I: Avena fatua, herbicidal effect grade [15]","L: Apera spica-venti, herbicidal effect grade [16]","M: Abutilon theophrasti, herbicidal effect grade [17]","O: Chenopodium album, herbicidal effect grade [18]","P: Stellaria media, herbicidal effect grade [19]","Q: Galium spurium, herbicidal effect grade [20]",other results
CC(CC1CC(OC(=O)COc2ccccc2)=C(c2c(C)cc(-n3cc(Cl)cn3)cc2C)C1=O)=NOCC(F)(F)F (stereo not drawn) [9-012],5 (Herbicidal ratio of 90% or more (almost completely withered)),5 (Herbicidal ratio of 90% or more (almost completely withered)),5 (Herbicidal ratio of 90% or more (almost completely withered)),5 (Herbicidal ratio of 90% or more (almost completely withered)),5 (Herbicidal ratio of 90% or more (almost completely withered)),0 (Herbicidal ratio of 5% or lower (almost no effect)),2 (Herbicidal ratio of 20% or higher and lower than 40%),2 (Herbicidal ratio of 20% or higher and lower than 40%),0 (Herbicidal ratio of 5% or lower (almost no effect)),5 (Herbicidal ratio of 90% or more (almost completely withered)),0 (Herbicidal ratio of 5% or lower (almost no effect)),0 (Herbicidal ratio of 5% or lower (almost no effect)),5 (Herbicidal ratio of 90% or more (almost completely withered)),5 (Herbicidal ratio of 90% or more (almost completely withered)),5 (Herbicidal ratio of 90% or more (almost completely withered)),5 (Herbicidal ratio of 90% or more (almost completely withered)),1 (Herbicidal ratio of 5% or higher and lower than 20%),2 (Herbicidal ratio of 20% or higher and lower than 40%),4 (Herbicidal ratio of 70% or higher and lower than 90%),4 (Herbicidal ratio of 70% or higher and lower than 90%),"R: Veronica persica, herbicidal effect grade [21]: 3 (Herbicidal ratio of 40% or higher and lower than 70%); b: directly sowed rice plant, effect on crop grade [22]: 5 (Herbicidal ratio of 90% or more (almost completely withered)); e: wheat, effect on crop grade [23]: 2 (Herbicidal ratio of 20% or higher and lower than 40%); f: beet, effect on crop grade [24]: 0 (Herbicidal ratio of 5% or lower (almost no effect))"
CC#Cc1cc(C)c(C2=C(O)CC(CC(=NOCC(F)(F)F)C(C)C)C2=O)c(C)c1 (stereo not drawn) [9-015],5 (Herbicidal ratio of 90% or more (almost completely withered)),5 (Herbicidal ratio of 90% or more (almost completely withered)),5 (Herbicidal ratio of 90% or more (almost completely withered)),5 (Herbicidal ratio of 90% or more (almost completely withered)),5 (Herbicidal ratio of 90% or more (almost completely withered)),0 (Herbicidal ratio of 5% or lower (almost no effect)),0 (Herbicidal ratio of 5% or lower (almost no effect)),0 (Herbicidal ratio of 5% or lower (almost no effect)),0 (Herbicidal ratio of 5% or lower (almost no effect)),5 (Herbicidal ratio of 90% or more (almost completely withered)),0 (Herbicidal ratio of 5% or lower (almost no effect)),0 (Herbicidal ratio of 5% or lower (almost no effect)),5 (Herbicidal ratio of 90% or more (almost completely withered)),5 (Herbicidal ratio of 90% or more (almost completely withered)),4 (Herbicidal ratio of 70% or higher and lower than 90%),5 (Herbicidal ratio of 90% or more (almost completely withered)),0 (Herbicidal ratio of 5% or lower (almost no effect)),3 (Herbicidal ratio of 40% or higher and lower than 70%),3 (Herbicidal ratio of 40% or higher and lower than 70%),2 (Herbicidal ratio of 20% or higher and lower than 40%),"R: Veronica persica, herbicidal effect grade [21]: 4 (Herbicidal ratio of 70% or higher and lower than 90%); b: directly sowed rice plant, effect on crop grade [22]: 5 (Herbicidal ratio of 90% or more (almost completely withered)); e: wheat, effect on crop grade [23]: 3 (Herbicidal ratio of 40% or higher and lower than 70%); f: beet, effect on crop grade [24]: 0 (Herbicidal ratio of 5% or lower (almost no effect))"
COCCON=C(C)CC1CC(O)=C(c2c(C)cc(-n3cc(Cl)cn3)cc2C)C1=O (stereo not drawn) [9-016],5 (Herbicidal ratio of 90% or more (almost completely withered)),5 (Herbicidal ratio of 90% or more (almost completely withered)),5 (Herbicidal ratio of 90% or more (almost completely withered)),5 (Herbicidal ratio of 90% or more (almost completely withered)),5 (Herbicidal ratio of 90% or more (almost completely withered)),0 (Herbicidal ratio of 5% or lower (almost no effect)),0 (Herbicidal ratio of 5% or lower (almost no effect)),3 (Herbicidal ratio of 40% or higher and lower than 70%),0 (Herbicidal ratio of 5% or lower (almost no effect)),5 (Herbicidal ratio of 90% or more (almost completely withered)),0 (Herbicidal ratio of 5% or lower (almost no effect)),0 (Herbicidal ratio of 5% or lower (almost no effect)),5 (Herbicidal ratio of 90% or more (almost completely withered)),5 (Herbicidal ratio of 90% or more (almost completely withered)),5 (Herbicidal ratio of 90% or more (almost completely withered)),5 (Herbicidal ratio of 90% or more (almost completely withered)),0 (Herbicidal ratio of 5% or lower (almost no effect)),2 (Herbicidal ratio of 20% or higher and lower than 40%),3 (Herbicidal ratio of 40% or higher and lower than 70%),2 (Herbicidal ratio of 20% or higher and lower than 40%),"R: Veronica persica, herbicidal effect grade [21]: 1 (Herbicidal ratio of 5% or higher and lower than 20%); b: directly sowed rice plant, effect on crop grade [22]: 5 (Herbicidal ratio of 90% or more (almost completely withered)); e: wheat, effect on crop grade [23]: 3 (Herbicidal ratio of 40% or higher and lower than 70%); f: beet, effect on crop grade [24]: 0 (Herbicidal ratio of 5% or lower (almost no effect))"
